# Laboratory results as given in the supplement of paper PMC5373622, “Screening for AMPA receptor auxiliary subunit specific modulators” (PLoS ONE, 2017).
# ± gives the standard deviation of the averaged measurements.
# What was measured:
# GRIA2 [1] = assay: glutamate-evoked VSD slope, % of maximal glutamate response; higher = potentiation
# GRIA2 [2] = assay: compound-evoked VSD slope (no glutamate), % of maximal glutamate slope; higher = agonist activity
# Protocol: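 VSD concentration-response of known AMPAR ligands (fluorowillardiine, CX-546, cyclothiazide) on A2R-stg and A2R-C3 HEK293 cells, with compound added before EC50 glutamate. Per-well GluSlope and compound-window slope are given as % of the maximal-glutamate slope after vehicle subtraction.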
Structure (SMILES),"glutamate-evoked VSD slope (GRIA2 [1]; 1.95 µM, clone: A2R-C3) [%]","glutamate-evoked VSD slope (GRIA2 [1]; 1.95 µM, clone: A2R-stg) [%]","glutamate-evoked VSD slope (GRIA2 [1]; 3.91 µM, clone: A2R-C3) [%]","glutamate-evoked VSD slope (GRIA2 [1]; 3.91 µM, clone: A2R-stg) [%]","glutamate-evoked VSD slope (GRIA2 [1]; 7.81 µM, clone: A2R-C3) [%]","glutamate-evoked VSD slope (GRIA2 [1]; 7.81 µM, clone: A2R-stg) [%]","glutamate-evoked VSD slope (GRIA2 [1]; 15.6 µM, clone: A2R-C3) [%]","glutamate-evoked VSD slope (GRIA2 [1]; 15.6 µM, clone: A2R-stg) [%]","glutamate-evoked VSD slope (GRIA2 [1]; 31.2 µM, clone: A2R-C3) [%]","glutamate-evoked VSD slope (GRIA2 [1]; 31.2 µM, clone: A2R-stg) [%]","glutamate-evoked VSD slope (GRIA2 [1]; 62.5 µM, clone: A2R-C3) [%]","glutamate-evoked VSD slope (GRIA2 [1]; 62.5 µM, clone: A2R-stg) [%]","glutamate-evoked VSD slope (GRIA2 [1]; 0.000125 M, clone: A2R-C3) [%]","glutamate-evoked VSD slope (GRIA2 [1]; 0.000125 M, clone: A2R-stg) [%]","glutamate-evoked VSD slope (GRIA2 [1]; 0.00025 M, clone: A2R-stg) [%]","glutamate-evoked VSD slope (GRIA2 [1]; 0.0005 M, clone: A2R-C3) [%]","glutamate-evoked VSD slope (GRIA2 [1]; 0.0005 M, clone: A2R-stg) [%]","compound-evoked VSD slope (GRIA2 [2]; 1.95 µM, clone: A2R-C3) [%]","compound-evoked VSD slope (GRIA2 [2]; 1.95 µM, clone: A2R-stg) [%]","compound-evoked VSD slope (GRIA2 [2]; 3.91 µM, clone: A2R-C3) [%]","compound-evoked VSD slope (GRIA2 [2]; 3.91 µM, clone: A2R-stg) [%]","compound-evoked VSD slope (GRIA2 [2]; 7.81 µM, clone: A2R-C3) [%]","compound-evoked VSD slope (GRIA2 [2]; 7.81 µM, clone: A2R-stg) [%]","compound-evoked VSD slope (GRIA2 [2]; 15.6 µM, clone: A2R-C3) [%]","compound-evoked VSD slope (GRIA2 [2]; 15.6 µM, clone: A2R-stg) [%]","compound-evoked VSD slope (GRIA2 [2]; 31.2 µM, clone: A2R-C3) [%]","compound-evoked VSD slope (GRIA2 [2]; 31.2 µM, clone: A2R-stg) [%]","compound-evoked VSD slope (GRIA2 [2]; 62.5 µM, clone: A2R-C3) [%]","compound-evoked VSD slope (GRIA2 [2]; 62.5 µM, clone: A2R-stg) [%]","compound-evoked VSD slope (GRIA2 [2]; 0.000125 M, clone: A2R-C3) [%]","compound-evoked VSD slope (GRIA2 [2]; 0.000125 M, clone: A2R-stg) [%]","compound-evoked VSD slope (GRIA2 [2]; 0.00025 M, clone: A2R-C3) [%]","compound-evoked VSD slope (GRIA2 [2]; 0.00025 M, clone: A2R-stg) [%]","compound-evoked VSD slope (GRIA2 [2]; 0.0005 M, clone: A2R-C3) [%]","compound-evoked VSD slope (GRIA2 [2]; 0.0005 M, clone: A2R-stg) [%]","glutamate-evoked VSD slope (GRIA2 [1]; 0.001 M, clone: A2R-C3) [%]","glutamate-evoked VSD slope (GRIA2 [1]; 0.001 M, clone: A2R-stg) [%]","compound-evoked VSD slope (GRIA2 [2]; 0.001 M, clone: A2R-C3) [%]"
NS(=O)(=O)c1cc2c(cc1Cl)NC(C1CC3C=CC1C3)NS2(=O)=O (configuration not stated) [cyclothiazide],23 ± 3.3,30.6 ± 5.6,26.7 ± 2.5,37.5 ± 5.1,42.8 ± 3.3,52.6 ± 3.2,56.6 ± 5.3,60 ± 5.6,65.2 ± 3.7,62.7 ± 9.1,70.9 ± 3.4,68.8 ± 4,63.8 ± 21,68.4 ± 3.5,71.3 ± 3.3,69 ± 4.6,65.9 ± 8.1,16.2 ± 1.1,27.7 ± 0.73,18.4 ± 1.1,26.6 ± 1.6,15.7 ± 1.1,27.1 ± 1.4,18 ± 1.3,27.3 ± 0.81,18.6 ± 0.53,27.7 ± 1.1,18.6 ± 1.4,28.8 ± 0.79,19.2 ± 1.4,29 ± 0.62,20.3 ± 1.3,28.2 ± 1.1,20.7 ± 1.4,27.5 ± 1.8,–,–,–
O=C(c1ccc2c(c1)OCCO2)N1CCCCC1 [CX-546],–,–,12.5 ± 1.8,–,10.8 ± 3.4,20.7 ± 4.5,15.8 ± 6.4,24.6 ± 8,–,24.9 ± 3.2,23 ± 2,41.4 ± 4.9,25.6 ± 3.4,–,53.6 ± 3,40.3 ± 4.6,–,–,–,16.4 ± 1.7,26.8 ± 0.99,16.9 ± 0.81,27.4 ± 1,16.1 ± 4.3,26.7 ± 1.3,16.2 ± 3.6,26.7 ± 1.4,18.9 ± 2.4,28 ± 0.66,18.9 ± 0.99,29.5 ± 0.74,–,–,23.4 ± 0.91,–,47.6 ± 10,54.1 ± 3.9,29.1 ± 1.2
